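Values below derive from 48-hour exposures of cells grown in 96-well plates, with endpoints linearly interpolated between the two concentrations bracketing the appropriate inhibition level. GI50 marks 50% less growth.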 Active and inactive are the calls of the source. Cut-off read from the data, not from the text of the source: active = GI50 up to about 1.1 µM and inactive = higher.
Experiments:
Assay in all cases: NCI tumour cell line growth inhibition, 48 h
U-251 = tested on: U-251
CAKI-1 = tested on: CAKI-1
SK-MEL-2 = tested on: SK-MEL-2
SNB-19 = tested on: SNB-19
OVCAR-5 = tested on: OVCAR-5
MDA-MB-435 = tested on: MDA-MB-435
EKVX = tested on: EKVX
Hs-578T = tested on: Hs-578T
SR = tested on: SR
UO-31 = tested on: UO-31
MCF7 = tested on: MCF7
K562 = tested on: K562
NCI-H460 = tested on: NCI-H460
SK-OV-3 = tested on: SK-OV-3
UACC-257 = tested on: UACC-257
SK-MEL-28 = tested on: SK-MEL-28
HOP-62 = tested on: HOP-62
SF-268 = tested on: SF-268
SW-620 = tested on: SW-620
SF-539 = tested on: SF-539

Measured: GI50

COC(=O)c1ccccc1CC(Cc1ccccc1)C(=O)OC (stereo not given)
inactive: U-251 30.8 µM | CAKI-1 83.4 µM | SK-MEL-2 36.8 µM | SNB-19 68.4 µM | OVCAR-5 62.7 µM | MDA-MB-435 75.3 µM | EKVX 45.9 µM | Hs-578T 56 µM | SR 27 µM | UO-31 39.1 µM | MCF7 82 µM | K562 37.7 µM | NCI-H460 > 100 µM | SK-OV-3 36.3 µM | UACC-257 72.1 µM | SK-MEL-28 > 100 µM | HOP-62 > 100 µM | SF-268 20.3 µM | SW-620 > 100 µM | SF-539 > 100 µM

CCCCNC(=O)c1cc(S(=O)(=O)n2ccnc2O)c(SC)cc1Cl
inactive: U-251 > 100 µM | CAKI-1 > 100 µM | SK-MEL-2 > 100 µM | SNB-19 > 100 µM | OVCAR-5 > 100 µM | MDA-MB-435 > 100 µM | EKVX > 100 µM | Hs-578T > 100 µM | SR > 100 µM | UO-31 > 100 µM | MCF7 > 100 µM | K562 > 100 µM | NCI-H460 > 100 µM | SK-OV-3 > 100 µM | UACC-257 > 100 µM | SK-MEL-28 > 100 µM | HOP-62 > 100 µM | SF-268 > 10 µM | SW-620 > 100 µM | SF-539 > 100 µM

COc1ccc(/C=C2\CCC/C(=C\c3ccc(O)c(CN4CCCCC4)c3)C2=O)cc1
inactive: U-251 4.06 µM | CAKI-1 11.1 µM | SK-MEL-2 11.2 µM | SNB-19 23.4 µM | OVCAR-5 22.5 µM | MDA-MB-435 3.1 µM | EKVX 10 µM | Hs-578T 11.5 µM | SR 1.35 µM | UO-31 6.75 µM | MCF7 3.73 µM | K562 3.96 µM | NCI-H460 4.98 µM | SK-OV-3 22.3 µM | UACC-257 4.76 µM | SK-MEL-28 11.3 µM | HOP-62 12.4 µM | SF-268 3.31 µM | SW-620 3.33 µM | SF-539 3.08 µM

CC(=O)c1ccccc1NP(=O)(c1ccccc1)c1ccccc1
inactive: U-251 96.6 µM | CAKI-1 30.8 µM | SK-MEL-2 54.1 µM | SNB-19 > 100 µM | OVCAR-5 > 100 µM | MDA-MB-435 38.7 µM | EKVX 45.4 µM | Hs-578T 53.3 µM | SR 60 µM | UO-31 45.3 µM | MCF7 64.6 µM | K562 62.5 µM | NCI-H460 43.6 µM | SK-OV-3 20.4 µM | UACC-257 68.9 µM | SK-MEL-28 67.9 µM | HOP-62 > 100 µM | SF-268 74.5 µM | SW-620 97.7 µM | SF-539 70.3 µM
